Data set [1] concerns the target T1, CYP1B1 (Homo sapiens, UniProt Q16678, L432V).
T1 construct: made in house; host or cells: E. coli JM109
T1 sequence (Q16678 1-543 L432V): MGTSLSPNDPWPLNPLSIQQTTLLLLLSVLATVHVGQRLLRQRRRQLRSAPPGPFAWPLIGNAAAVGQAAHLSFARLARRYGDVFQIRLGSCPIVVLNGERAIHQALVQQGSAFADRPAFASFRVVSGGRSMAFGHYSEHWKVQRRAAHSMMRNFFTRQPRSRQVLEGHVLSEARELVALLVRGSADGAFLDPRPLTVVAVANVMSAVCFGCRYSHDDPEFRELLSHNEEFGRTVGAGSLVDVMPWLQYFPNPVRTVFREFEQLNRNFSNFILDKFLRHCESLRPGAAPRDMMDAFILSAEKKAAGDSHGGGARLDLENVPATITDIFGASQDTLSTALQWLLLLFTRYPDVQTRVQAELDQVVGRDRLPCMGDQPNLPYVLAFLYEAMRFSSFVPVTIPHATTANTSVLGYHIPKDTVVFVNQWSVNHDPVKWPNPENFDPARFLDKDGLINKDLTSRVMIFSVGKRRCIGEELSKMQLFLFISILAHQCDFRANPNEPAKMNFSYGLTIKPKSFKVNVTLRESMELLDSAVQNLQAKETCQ
The data set is described as follows: Inhibition of CYP1B1-dependent EROD activity, E. coli membranes co-expressing CYP1B1 and CPR. The format is biochemical. As for the experimental part:
(§1) EROD activity was determined as previously described, but modified in 96-well plate format with quadruplicate replicates, using a Fluoroskan fluorescence reader (Labsystems, Cambridge, UK). […] Calibration curves were constructed with authentic resorufin standards and linear regression analysis used to calculate the amount of resorufin formed in each test sample. Enzyme kinetics for CYP1B1-catalysed EROD activity were determined at substrate concentrations from 0.002 to 2 µM. Apparent Km and Vmax values were estimated by non-linear regression analysis (GraFit software program, UK) of the substrate concentration [S]-enzyme activity [V], fitting data to a Michaelis-Menten model.

Another data set deals with CYP1B1*1 (Homo sapiens, UniProt Q16678). Kind of data set: Inhibition of EROD activity of CYP1B1 allelic variant co-expressed with CPR. The format is biochemical. As to conditions: IC50 against CYP1B1-dependent EROD activity, mean ± SD of triplicate determinations. As for the experimental part:
(§2) Construction of CYP1B1 and CPR expression plasmids has been described previously. The CYP1B1 alleles CYP1B1*1, CYP1B1*3 and CYP1B1*4 were co-expressed with CPR in E. coli JM109 cells and membranes prepared as described previously. P450 content was determined spectrophotometrically, and CPR activity estimated by cytochrome c reduction. […] Solubilised protein lysates or human liver microsomes were separated by SDS-PAGE, transferred onto Hybond-ECL nitrocellulose membranes (Amersham, UK) and probed with CYP1B1 (BD Gentest, Woburn, MA) and CPR antibodies, as previously described.
as §1

For a further data set, the target named is CYP1B1*3 (Homo sapiens, UniProt Q16678, form not given). The data set is described as above. In kind it is biochemical. As to conditions: probe 7-ethoxyresorufin (EROD). As for the experimental part: as §2, §1
Another data set concerns the target T2, CYP1B1*4 (Homo sapiens, UniProt Q16678, L432V/N453S).
T2 construct: made in house; host or cells: E. coli JM109
T2 sequence (Q16678 1-543 L432V/N453S): T1 sequence (Q16678 1-543 L432V) with N453S
Described as above. The format is biochemical. As to conditions: mean ± SD of triplicate determinations, read-out: IC50 against CYP1B1-dependent EROD activity (converted). As for the experimental part:
as §2, §1

The subject of another data set is CHO-CPR cells. The data set is described as follows: PUVA cytotoxicity, neutral red uptake assay. As for the experimental part:
(§3) CHO cell lines stably over-expressing CYP1B1 and CPR were generated as previously described. CHO cells were maintained at 37°C/5% CO2 in Dulbecco’s Modified Eagle’s medium (DMEM) supplemented with 10% fetal bovine serum (FBS), 100 U/ml penicillin, 100 µg/ml streptomycin, 1 U/ml each of hypoxanthine and thymine (Invitrogen, Paisley-UK). Similar culture conditions, with the addition of G-418 (400 µg/ml), were used for CHO cells stably expressing CPR (CHO-CPR). CHO cells stably co-expressing CYP1B1 and CPR (CHO-1B1/CPR) were maintained at 37°C/5% CO2, but in hypoxanthine and thymine-free DMEM supplemented with 10% dialysed FBS and the appropriate selection (0.3 µM MTX and 400 µg/ml G-418). HaCaT keratinocytes were grown to 80% confluence in DMEM supplemented with 10% fetal bovine serum (FBS), 100 U/ml penicillin, 100 µg/ml streptomycin and 2 mM glutamine. Cells were harvested and microsomes prepared as described previously. HaCaT cell microsomes and microsomes from human skin biopsies obtained from peri-lesional skin from psoriasis patients, [13] were used to investigate functional CYP1B1 expression using EROD assays.
(§4) To investigate CHO cell sensitivity to UVA and PUVA, actively dividing cells (10000 cells/well) were seeded in 96-well plates (Iwaki, Japan) in quadruplicates in 200 µl culture medium and allowed to grow for 18–20 h. Cells were irradiated at room temperature with a UVA source (2×6 ft Cosmolux 15500/100 W, 1.7 mW/cm^2 (320–400 nm; λmax = 365 nm), Germany) through a 4 mm thick window glass filter at multiple UVA doses (0, 1.5, 4.0 and 7.5 J/cm^2), monitoring irradiance with a Waldmann UV meter equipped with UVA detector. Control samples were kept in the dark under the same conditions. […] Control samples were pre-incubated with solvent and kept in the dark under the same conditions. After each treatment, fresh culture medium was added and cells returned to an incubator at 37°C/5%CO2 for 24 h. Cell viability was assessed using neutral red uptake assays; quadruplicate replicates of each treatment were performed, and each experiment repeated twice. PUVA cytotoxicity data was assessed by non-linear regression analysis for dose-response curves (IC50) fitting (GraFit software program, UK) and unpaired Student’s t-test (Statview 4.1 software).

The test system of a further data set is CHO cells. The data set is described as follows: PUVA cytotoxicity, neutral red uptake assay. On the procedure:
as §3, §4

Data set [2] relates to CYP1B1. As to conditions: α-naphthoflavone 5 µM; recombinant CYP1B1.
Procedure: (§5) After 3 min 37°C pre-incubation, reactions were initiated by 40 µl 5 mM NADPH containing 30 mM glutathione (GSH) in 50 mM PB (pH 7.4). Reactions were incubated for 10 min in a shaking water bath at 37°C, terminated by the addition of 100 µl ice-cold methanol containing 3% perchloric acid, and placed on ice for 10 min. Zero-time controls were terminated before the addition of P450 membranes; no-NADPH control reactions were initiated with 20 µl 50 mM PB (pH 7.4) containing 30 mM GSH. Samples were vortexed for 1 min, centrifuged at 12 000 rpm for 5 min, supernatants collected and analysed by HPLC analysis [28].
Another data set relates to human liver microsomes. Kind of data set: 8-MOP metabolism (substrate depletion) in human liver microsomes. In kind it is in vitro ADME. As to conditions: α-naphthoflavone 5 µM.
The next data set addresses T3, CYP1A1 (Homo sapiens, UniProt P04798).
T3 sequence (P04798 1-512): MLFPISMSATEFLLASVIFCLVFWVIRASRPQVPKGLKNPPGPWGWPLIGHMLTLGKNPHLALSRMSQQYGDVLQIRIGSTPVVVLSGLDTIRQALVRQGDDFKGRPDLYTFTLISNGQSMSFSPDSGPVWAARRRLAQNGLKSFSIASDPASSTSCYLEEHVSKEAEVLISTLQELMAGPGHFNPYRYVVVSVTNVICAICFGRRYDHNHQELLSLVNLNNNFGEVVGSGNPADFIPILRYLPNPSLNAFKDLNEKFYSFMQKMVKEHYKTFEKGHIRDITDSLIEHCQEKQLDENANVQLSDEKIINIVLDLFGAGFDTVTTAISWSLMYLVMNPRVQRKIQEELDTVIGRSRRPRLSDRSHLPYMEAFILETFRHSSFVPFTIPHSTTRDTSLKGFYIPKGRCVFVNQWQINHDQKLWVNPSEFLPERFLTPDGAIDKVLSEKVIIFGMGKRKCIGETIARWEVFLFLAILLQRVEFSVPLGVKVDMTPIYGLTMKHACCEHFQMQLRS
The note with it: α-naphthoflavone 5 µM; recombinant CYP1A1.

Numbering of substitutions follows the chain as printed. Where “and” joins values, the source holds several entries; their conditions need not be identical. Equal entries are not always repeated.

The IC50 is the concentration that inhibits the measured activity by half. For orientation: Ki means the equilibrium dissociation constant of an inhibitor or competing ligand from its target. Higher therefore signals lower affinity.

Procedure for CYP1A1: as §5
Procedure for human liver microsomes: as §5

Turning to `COc1c2occc2cc2ccc(=O)oc12` [8-MOP, 8-methoxypsoralen], the 50% inhibitory concentration (IC50) at CYP1B1 [1] (7-ethoxyresorufin at Km concentration, estimated) was 2 ± 0.1 µM; against CYP1B1*1, 1.71 µM and 1.7 µM; at CYP1B1*4, 0.601 µM and 0.6 µM; in the data set with CHO-CPR cells (Cricetulus griseus, light or radiation study, read-out: IC50 for 8-MOP in the presence of UVA) it was 0.54 µg/mL and 2.5 µM; in the data set on CHO cells (Cricetulus griseus, CHO, light or radiation study, read-out: IC50 for 8-MOP in the presence of UVA), 0.461 µg/mL and 2.13 µM. In addition, at CYP1B1 [1] (Lineweaver-Burk plots, six 8-MOP and four 7-ethoxyresorufin concentrations), the “Mode of inhibition of CYP1B1” value is on record as “mixed inhibition”. The Ki on CYP1B1 [1] (n = 3) came out at 3.58 ± 1 µM. Moreover, the IC50 at 3 min on CYP1B1*3 is 0.326 µg/mL and 1.5 µM. Further, the “Cytotoxicity of 8-MOP alone (no UVA)” value in the data set on CHO-CPR cells (CHO-CPR cells, 8-MOP alone) was “not cytotoxic”; in the data set with CHO cells (CHO cells, 8-MOP 0–5 µM, dark), “no significant cytotoxicity”.

Regarding `O=c1cc(-c2ccccc2)oc2c1ccc1ccccc12` [α-naphthoflavone], the “8-MOP metabolism in presence of inhibitor” value with CYP1B1 [2] is reported as 62 % of control levels; in the data set on human liver microsomes, 59 % of control levels; on CYP1A1 it was 53 % of control levels.

Source of the values: PMC3781062 (PLoS ONE, 2013).
